# Assay results published in publication PMC5218480 (PLoS ONE, 2017).
# Tested on: MV-4-11 cells
# Assay: Gene expression microarray analysis (Affymetrix PrimeView) and GSEA
# Type: cell-based, human
# Design: RFU PODN (11730768_x_at) / Fold change /veh PODN (11730768_x_at) / RFU LINC00158 (11744669_a_at) / Fold change /veh LINC00158 (11744669_a_at) / RFU DUSP10 (11751237_a_at) / Fold change /veh DUSP10 (11751237_a_at) / RFU ID3 (11757404_x_at) / Fold change /veh ID3 (11757404_x_at) / RFU PLEKHG5 (11737974_s_at) / Fold change /veh PLEKHG5 (11737974_s_at) / RFU LRRC4B (11730491_at) / Fold change /veh LRRC4B (11730491_at) / RFU GIMAP4 (11747438_a_at) / Fold change /veh GIMAP4 (11747438_a_at) / RFU KRT8 (11758183_x_at) / Fold change /veh KRT8 (11758183_x_at) / RFU CNN1 (11734310_a_at) / Fold change /veh CNN1 (11734310_a_at) / RFU VPS37D (11726825_at) / Fold change /veh VPS37D (11726825_at) / RFU C10orf10 (11716522_x_at) / Fold change /veh C10orf10 (11716522_x_at) / RFU KIR2DL2 /// KIR2DL4 /// KIR2DL5A /// KIR2DL5B /// KIR2DS1 /// KIR2DS2 /// KIR2DS3 /// KIR2DS4 /// KIR3DL3 /// KIR3DL3 /// KIR3DS1 (11738374_at) / Fold change /veh KIR2DL2 /// KIR2DL4 /// KIR2DL5A /// KIR2DL5B /// KIR2DS1 /// KIR2DS2 /// KIR2DS3 /// KIR2DS4 /// KIR3DL3 /// KIR3DL3 /// KIR3DS1 (11738374_at) / RFU C1QL1 (11718748_at) / Fold change /veh C1QL1 (11718748_at) / RFU TMPRSS4 (11747572_a_at) / Fold change /veh TMPRSS4 (11747572_a_at) / RFU HAMP (11756126_x_at) / Fold change /veh HAMP (11756126_x_at) / RFU RNFT2 (11725882_a_at) / Fold change /veh RNFT2 (11725882_a_at) / RFU NR4A2 (11747474_a_at) / Fold change /veh NR4A2 (11747474_a_at) / RFU ABCC12 (11746883_a_at) / Fold change /veh ABCC12 (11746883_a_at) / RFU TMEM136 (11760407_x_at) / Fold change /veh TMEM136 (11760407_x_at) / RFU CLDN22 /// WWC2 (11732394_at) / Fold change /veh CLDN22 /// WWC2 (11732394_at) / RFU HLA-DPB1 (11760878_x_at) / Fold change /veh HLA-DPB1 (11760878_x_at) / RFU SPINT1 (11716480_a_at) / Fold change /veh SPINT1 (11716480_a_at) / RFU GAP43 (11754022_s_at) / Fold change /veh GAP43 (11754022_s_at) / RFU A4GNT (11735810_at) / Fold change /veh A4GNT (11735810_at) / RFU PRB3 (11715151_x_at) / Fold change /veh PRB3 (11715151_x_at) / RFU TUBB4B (11761932_at) / Fold change /veh TUBB4B (11761932_at) / RFU CAPN14 (11732068_a_at) / Fold change /veh CAPN14 (11732068_a_at) / RFU TMCC2 (11721928_a_at) / Fold change /veh TMCC2 (11721928_a_at) / RFU IRGQ (11745062_a_at) / Fold change /veh IRGQ (11745062_a_at) / RFU FAM174B (11720279_a_at) / Fold change /veh FAM174B (11720279_a_at) / RFU TMPRSS4 (11748680_a_at) / Fold change /veh TMPRSS4 (11748680_a_at) / RFU FAM212B (11763350_a_at) / Fold change /veh FAM212B (11763350_a_at) / RFU PLEKHG5 (11743358_a_at) / Fold change /veh PLEKHG5 (11743358_a_at) / RFU ZSCAN30 (11745921_a_at) / Fold change /veh ZSCAN30 (11745921_a_at) / RFU CMKLR1 (11741424_a_at) / Fold change /veh CMKLR1 (11741424_a_at) / RFU LOC101060620 /// MAPK8IP1 (11723275_at) / Fold change /veh LOC101060620 /// MAPK8IP1 (11723275_at) / RFU SPTSSB (11747773_x_at) / Fold change /veh SPTSSB (11747773_x_at) / RFU PRSS12 (11739890_at) / Fold change /veh PRSS12 (11739890_at) / RFU BIN1 (11741810_x_at) / Fold change /veh BIN1 (11741810_x_at) / RFU WNT11 (11732464_a_at) / Fold change /veh WNT11 (11732464_a_at) / RFU C10orf10 (11716521_a_at) / Fold change /veh C10orf10 (11716521_a_at) / RFU C5orf56 (11738089_at) / Fold change /veh C5orf56 (11738089_at) / RFU CYB561 (11721691_x_at) / Fold change /veh CYB561 (11721691_x_at) / RFU ANKRD19P (11752326_a_at) / Fold change /veh ANKRD19P (11752326_a_at) / RFU OR2T12 /// OR2T33 /// OR2T8 (11738714_s_at) / Fold change /veh OR2T12 /// OR2T33 /// OR2T8 (11738714_s_at) / RFU VCAN (11748164_a_at) / Fold change /veh VCAN (11748164_a_at) / RFU JSRP1 (11732532_at) / Fold change /veh JSRP1 (11732532_at) / RFU KRTAP10-11 (11738290_x_at) / Fold change /veh KRTAP10-11 (11738290_x_at) / RFU MYO3A (11730013_a_at) / Fold change /veh MYO3A (11730013_a_at) / RFU EBF3 (11725865_a_at) / Fold change /veh EBF3 (11725865_a_at) / RFU CAMK2N1 (11719241_x_at) / Fold change /veh CAMK2N1 (11719241_x_at) / RFU C5orf56 (11738088_a_at) / Fold change /veh C5orf56 (11738088_a_at) / RFU OLFML3 (11715873_a_at) / Fold change /veh OLFML3 (11715873_a_at) / RFU LOC100653217 /// NTM (11731650_a_at) / Fold change /veh LOC100653217 /// NTM (11731650_a_at) / RFU MAPK11 (11762145_a_at) / Fold change /veh MAPK11 (11762145_a_at) / RFU FIZ1 (11724087_x_at) / Fold change /veh FIZ1 (11724087_x_at) / RFU OASL (11726364_x_at) / Fold change /veh OASL (11726364_x_at) / RFU SOX15 (11748057_x_at) / Fold change /veh SOX15 (11748057_x_at) / RFU CD79A (11719716_a_at) / Fold change /veh CD79A (11719716_a_at) / RFU HIST1H1D (11736915_at) / Fold change /veh HIST1H1D (11736915_at) / RFU CASKIN2 (11723855_a_at) / Fold change /veh CASKIN2 (11723855_a_at) / RFU LOC730098 (11760151_x_at) / Fold change /veh LOC730098 (11760151_x_at) / RFU OR4N2 (11742367_at) / Fold change /veh OR4N2 (11742367_at) / RFU PRRT2 (11749266_a_at) / Fold change /veh PRRT2 (11749266_a_at) / RFU SNX32 (11753110_a_at) / Fold change /veh SNX32 (11753110_a_at) / RFU CDHR5 (11726645_a_at) / Fold change /veh CDHR5 (11726645_a_at) / RFU RCAN1 (11760418_a_at) / Fold change /veh RCAN1 (11760418_a_at) / RFU FAM167A (11723789_a_at) / Fold change /veh FAM167A (11723789_a_at) / RFU FAM26E (11764081_at) / Fold change /veh FAM26E (11764081_at) / RFU ISYNA1 (11749810_s_at) / Fold change /veh ISYNA1 (11749810_s_at) / RFU ACY1 (11761880_at) / Fold change /veh ACY1 (11761880_at) / RFU 11764098_at / Fold change /veh 11764098_at / RFU SAMD14 (11745864_x_at) / Fold change /veh SAMD14 (11745864_x_at) / RFU NPB (11741838_a_at) / Fold change /veh NPB (11741838_a_at) / RFU TMPRSS6 (11731388_a_at) / Fold change /veh TMPRSS6 (11731388_a_at) / RFU KRTAP10-2 (11738614_at) / Fold change /veh KRTAP10-2 (11738614_at) / RFU ARHGAP8 /// PRR5-ARHGAP8 (11727945_x_at) / Fold change /veh ARHGAP8 /// PRR5-ARHGAP8 (11727945_x_at) / RFU KRTAP5-7 /// NADSYN1 (11734609_at) / Fold change /veh KRTAP5-7 /// NADSYN1 (11734609_at) / RFU RASL12 (11751679_a_at) / Fold change /veh RASL12 (11751679_a_at) / RFU CDKN2B (11736163_a_at) / Fold change /veh CDKN2B (11736163_a_at) / RFU PRF1 (11729649_at) / Fold change /veh PRF1 (11729649_at) / RFU, ZNF638 /// ZNF638-IT1 / Fold change vs veh, ZNF638 /// ZNF638-IT1 / RFU, PANK3 / Fold change vs veh, PANK3 / RFU, SH3YL1 / Fold change vs veh, SH3YL1 / RFU, ZEB2 / Fold change vs veh, ZEB2 / RFU, NRIP1 / Fold change vs veh, NRIP1 / RFU, PTTG1IP / Fold change vs veh, PTTG1IP / RFU, CAPN2 / Fold change vs veh, CAPN2 / RFU, MED14 / Fold change vs veh, MED14 / RFU, SNORA58 / Fold change vs veh, SNORA58 / RFU, C1orf63 / Fold change vs veh, C1orf63 / RFU, LRRFIP1 / Fold change vs veh, LRRFIP1 / RFU, NDUFAF7 / Fold change vs veh, NDUFAF7 / RFU, SLC12A2 / Fold change vs veh, SLC12A2 / RFU, IBTK / Fold change vs veh, IBTK / RFU, ESF1 / Fold change vs veh, ESF1 / Fold change vs veh, TMEM50B / RFU, TAOK1 / Fold change vs veh, TAOK1 / RFU, ACBD3 / Fold change vs veh, ACBD3 / RFU, TMA16 / Fold change vs veh, TMA16 / RFU, RWDD3 / Fold change vs veh, RWDD3 / RFU, BCAT1 / Fold change vs veh, BCAT1 / RFU, EDEM3 / Fold change vs veh, EDEM3 / RFU, TMEM33 / Fold change vs veh, TMEM33 / RFU, WDR75 / Fold change vs veh, WDR75 / RFU, AHCTF1 / Fold change vs veh, AHCTF1 / RFU, TFRC / Fold change vs veh, TFRC / RFU, ZDHHC17 / Fold change vs veh, ZDHHC17 / RFU, NOM1 / Fold change vs veh, NOM1 / RFU, ARL8B / Fold change vs veh, ARL8B / RFU, ZBTB11 / Fold change vs veh, ZBTB11 / RFU, TAMM41 / Fold change vs veh, TAMM41 / RFU, KIAA1704 /// LOC100996395 / Fold change vs veh, KIAA1704 /// LOC100996395 / RFU, ING1 / Fold change vs veh, ING1 / RFU, TRMT61B / Fold change vs veh, TRMT61B / RFU, FUBP3 / Fold change vs veh, FUBP3 / RFU, TP53 / Fold change vs veh, TP53 / RFU, TNKS2 / Fold change vs veh, TNKS2 / RFU, ZFP14 / Fold change vs veh, ZFP14 / RFU, ACTR2 / Fold change vs veh, ACTR2 / RFU, PPP3R1 / Fold change vs veh, PPP3R1 / RFU, PIK3R1 / Fold change vs veh, PIK3R1 / RFU, HNRNPA1 / Fold change vs veh, HNRNPA1 / RFU, RNF170 / Fold change vs veh, RNF170 / RFU, ZNF28 / Fold change vs veh, ZNF28 / RFU, RNGTT / Fold change vs veh, RNGTT / RFU, OGT / Fold change vs veh, OGT / RFU, BRD1 / Fold change vs veh, BRD1 / RFU, MARS / Fold change vs veh, MARS / RFU, ZNF655 / Fold change vs veh, ZNF655 / RFU, FAHD1 / Fold change vs veh, FAHD1 / RFU, BDP1 / Fold change vs veh, BDP1 / RFU, LRRCC1 / Fold change vs veh, LRRCC1 / RFU, ARID1A / Fold change vs veh, ARID1A / RFU, ZNF146 / Fold change vs veh, ZNF146 / RFU, ZNF330 / Fold change vs veh, ZNF330 / RFU, GPN3 / Fold change vs veh, GPN3 / RFU, C9orf123 / Fold change vs veh, C9orf123 / RFU, N4BP2L2 / Fold change vs veh, N4BP2L2 / RFU, ARFIP1 / Fold change vs veh, ARFIP1 / RFU, FAM179B / Fold change vs veh, FAM179B / RFU, BCL10 / Fold change vs veh, BCL10 / RFU, UHRF1BP1L / Fold change vs veh, UHRF1BP1L / RFU, BET1 / Fold change vs veh, BET1 / RFU, CNOT2 / Fold change vs veh, CNOT2 / RFU, ZNF268 / Fold change vs veh, ZNF268 / Fold change vs veh, ZNF507 / RFU, DGCR2 / Fold change vs veh, DGCR2 / RFU, WDSUB1 / Fold change vs veh, WDSUB1 / Fold change vs veh, HSP90B1 /// MIR3652 / RFU, ADSS / Fold change vs veh, ADSS / RFU, GK / Fold change vs veh, GK / RFU, ZNF148 / Fold change vs veh, ZNF148 / RFU, TAF9 / Fold change vs veh, TAF9 / RFU, SLC1A5 / Fold change vs veh, SLC1A5 / RFU, SLMO2 / Fold change vs veh, SLMO2 / RFU, ABCC4 / Fold change vs veh, ABCC4 / RFU, LOC101060439 /// RAP1B / Fold change vs veh, LOC101060439 /// RAP1B / RFU, RFX7 / Fold change vs veh, RFX7 / RFU, GTPBP10 / Fold change vs veh, GTPBP10 / RFU, CNEP1R1 / Fold change vs veh, CNEP1R1 / RFU, BIVM-ERCC5 /// ERCC5 / Fold change vs veh, BIVM-ERCC5 /// ERCC5 / RFU, ILF3 / Fold change vs veh, ILF3 / RFU 11762660_at / Fold change /veh 11762660_at / RFU VCAN (11757783_s_at) / Fold change /veh VCAN (11757783_s_at) / RFU DDX43 (11728927_at) / Fold change /veh DDX43 (11728927_at) / RFU KRT8 (11758188_x_at) / Fold change /veh KRT8 (11758188_x_at) / RFU NKD1 (11759106_at) / Fold change /veh NKD1 (11759106_at) / RFU SRD5A1 (11742802_a_at) / Fold change /veh SRD5A1 (11742802_a_at) / RFU TPSAB1 /// TPSB2 (11721975_s_at) / Fold change /veh TPSAB1 /// TPSB2 (11721975_s_at) / RFU GSTM3 (11746129_a_at) / Fold change /veh GSTM3 (11746129_a_at) / RFU IL23R (11737362_x_at) / Fold change /veh IL23R (11737362_x_at) / RFU TMEM51 (11727254_a_at) / Fold change /veh TMEM51 (11727254_a_at) / RFU PIWIL2 (11732686_x_at) / Fold change /veh PIWIL2 (11732686_x_at) / RFU ORM1 (11744905_x_at) / Fold change /veh ORM1 (11744905_x_at) / RFU CCDC152 (11743942_at) / Fold change /veh CCDC152 (11743942_at) / RFU ECM1 (11717891_a_at) / Fold change /veh ECM1 (11717891_a_at) / RFU IL23R (11748794_a_at) / Fold change /veh IL23R (11748794_a_at) / RFU TNFAIP8L3 (11732012_x_at) / Fold change /veh TNFAIP8L3 (11732012_x_at) / RFU MBOAT4 (11741988_at) / Fold change /veh MBOAT4 (11741988_at) / RFU 11764193_at / Fold change /veh 11764193_at / RFU TMEM53 (11763286_at) / Fold change /veh TMEM53 (11763286_at) / RFU MAGEB2 (11727129_at) / Fold change /veh MAGEB2 (11727129_at) / RFU TMEM200A (11744735_a_at) / Fold change /veh TMEM200A (11744735_a_at) / RFU CCDC152 (11751479_a_at) / Fold change /veh CCDC152 (11751479_a_at) / RFU FAM211A (11726209_a_at) / Fold change /veh FAM211A (11726209_a_at) / RFU RGS16 (11746705_a_at) / Fold change /veh RGS16 (11746705_a_at) / RFU VCAN (11755009_s_at) / Fold change /veh VCAN (11755009_s_at) / RFU RHOB (11743442_s_at) / Fold change /veh RHOB (11743442_s_at) / RFU RGS16 (11720943_a_at) / Fold change /veh RGS16 (11720943_a_at) / RFU RGS16 (11720944_at) / Fold change /veh RGS16 (11720944_at) / RFU, VPS4B / Fold change vs veh, VPS4B / RFU, CREB1 / Fold change vs veh, CREB1 / RFU, DNAJC13 / Fold change vs veh, DNAJC13 / RFU, GNAQ / Fold change vs veh, GNAQ / RFU, CDK5R1 / Fold change vs veh, CDK5R1 / RFU, ZRANB3 / Fold change vs veh, ZRANB3 / RFU, CUL4A / Fold change vs veh, CUL4A / RFU, CCNY / Fold change vs veh, CCNY / RFU, UFL1 / Fold change vs veh, UFL1 / RFU, COG3 / Fold change vs veh, COG3 / RFU, DIAPH2 / Fold change vs veh, DIAPH2 / RFU, SKA2 / Fold change vs veh, SKA2 / RFU, AFF3 / Fold change vs veh, AFF3 / RFU, LMF1 / Fold change vs veh, LMF1 / RFU, IPO11 / Fold change vs veh, IPO11 / RFU, DFFB / Fold change vs veh, DFFB / RFU, FOXP1 / Fold change vs veh, FOXP1 / RFU, CARD8 / Fold change vs veh, CARD8 / RFU, STRN3 / Fold change vs veh, STRN3 / RFU, ADK / Fold change vs veh, ADK / RFU, RASSF2 / Fold change vs veh, RASSF2 / RFU, WIPF1 / Fold change vs veh, WIPF1 / RFU, LARP1B / Fold change vs veh, LARP1B / RFU, RASA1 / Fold change vs veh, RASA1 / RFU, RB1 / Fold change vs veh, RB1 / RFU, PPFIA1 / Fold change vs veh, PPFIA1 / RFU, MAT2A / Fold change vs veh, MAT2A / RFU, CCT5 / Fold change vs veh, CCT5 / RFU, WDR92 / Fold change vs veh, WDR92 / RFU, CUX1 / Fold change vs veh, CUX1 / RFU, TTC7A / Fold change vs veh, TTC7A / RFU, TMEM135 / Fold change vs veh, TMEM135 / RFU, DEPTOR / Fold change vs veh, DEPTOR / RFU, CPM / Fold change vs veh, CPM / RFU, DNAJB6 / Fold change vs veh, DNAJB6 / RFU, CACNA2D3 / Fold change vs veh, CACNA2D3 / RFU, DTX4 / Fold change vs veh, DTX4 / RFU, TFCP2 / Fold change vs veh, TFCP2 / RFU, GMCL1 /// GMCL1P1 / Fold change vs veh, GMCL1 /// GMCL1P1 / RFU, AEBP2 / Fold change vs veh, AEBP2 / RFU, SNHG1 /// SNORD22 /// SNORD25 /// SNORD26 /// SNORD27 /// SNORD28 /// SNORD29 /// SNORD31 / Fold change vs veh, SNHG1 /// SNORD22 /// SNORD25 /// SNORD26 /// SNORD27 /// SNORD28 /// SNORD29 /// SNORD31 / Fold change (Aza/veh), C12orf56 (ProbeSet 11735607_a_at) / Fold change (ACY-1035/veh), C12orf56 (ProbeSet 11735607_a_at) / Fold change (Aza/veh), FGFR1OP (ProbeSet 11751329_s_at) / Fold change (ACY-1035/veh), FGFR1OP (ProbeSet 11751329_s_at) / Fold change (Aza/veh), VPS36 (ProbeSet 11739960_a_at) / Fold change (ACY-1035/veh), VPS36 (ProbeSet 11739960_a_at) / RFU SYPL1 (11715823_x_at) / Fold change /veh SYPL1 (11715823_x_at) / RFU IGFBP7 (11715501_s_at) / Fold change /veh IGFBP7 (11715501_s_at) / RFU REEP3 (11722064_at) / Fold change /veh REEP3 (11722064_at) / RFU IGLL1 (11728026_x_at) / Fold change /veh IGLL1 (11728026_x_at): dose or concentration left out as unconfirmed
# Conditions: MV-4-11 cells, 48 hours
smiles,measurement,value
Nc1ccc(-c2cccs2)cc1NC(=O)c1ccc2c(c1)cc(C1CC1)n2CCN1CCOCC1 [ACY-1035],Fold change /veh TMCC2 (11721928_a_at),1.04
